{"source": "BigSolDB 2.1", "data": [{"smiles": "O=C1NS(=O)(=O)c2ccccc21", "values": [{"measurement": "solubility (mole fraction)", "setting": "in acetone, 278.15 K", "value": 0.0222}, {"measurement": "solubility (mole fraction)", "setting": "in acetone, 283.15 K", "value": 0.025}, {"measurement": "solubility (mole fraction)", "setting": "in acetone, 288.15 K", "value": 0.0286}, {"measurement": "solubility (mole fraction)", "setting": "in acetone, 293.15 K", "value": 0.0326}, {"measurement": "solubility (mole fraction)", "setting": "in acetone, 298.15 K", "value": 0.0374}, {"measurement": "solubility (mole fraction)", "setting": "in acetone, 303.15 K", "value": 0.0422}, {"measurement": "solubility (mole fraction)", "setting": "in acetone, 308.15 K", "value": 0.0484}, {"measurement": "solubility (mole fraction)", "setting": "in acetone, 313.15 K", "value": 0.0554}, {"measurement": "solubility (mole fraction)", "setting": "in acetone, 318.15 K", "value": 0.0635}, {"measurement": "solubility (mole fraction)", "setting": "in acetone, 323.15 K", "value": 0.071}, {"measurement": "solubility (mole fraction)", "setting": "in ethanol, 278.15 K", "value": 0.00486}, {"measurement": "solubility (mole fraction)", "setting": "in ethanol, 283.15 K", "value": 0.00578}, {"measurement": "solubility (mole fraction)", "setting": "in ethanol, 288.15 K", "value": 0.00686}, {"measurement": "solubility (mole fraction)", "setting": "in ethanol, 293.15 K", "value": 0.00814}, {"measurement": "solubility (mole fraction)", "setting": "in ethanol, 298.15 K", "value": 0.00964}, {"measurement": "solubility (mole fraction)", "setting": "in ethanol, 303.15 K", "value": 0.0114}, {"measurement": "solubility (mole fraction)", "setting": "in ethanol, 308.15 K", "value": 0.0134}, {"measurement": "solubility (mole fraction)", "setting": "in ethanol, 313.15 K", "value": 0.0158}, {"measurement": "solubility (mole fraction)", "setting": "in ethanol, 318.15 K", "value": 0.019}, {"measurement": "solubility (mole fraction)", "setting": "in ethanol, 323.15 K", "value": 0.0231}, {"measurement": "solubility (mole fraction)", "setting": "in ethyl acetate, 278.15 K", "value": 0.00883}, {"measurement": "solubility (mole fraction)", "setting": "in ethyl acetate, 283.15 K", "value": 0.0111}, {"measurement": "solubility (mole fraction)", "setting": "in ethyl acetate, 288.15 K", "value": 0.0139}, {"measurement": "solubility (mole fraction)", "setting": "in ethyl acetate, 293.15 K", "value": 0.0169}, {"measurement": "solubility (mole fraction)", "setting": "in ethyl acetate, 298.15 K", "value": 0.0203}, {"measurement": "solubility (mole fraction)", "setting": "in ethyl acetate, 303.15 K", "value": 0.0241}, {"measurement": "solubility (mole fraction)", "setting": "in ethyl acetate, 308.15 K", "value": 0.0287}, {"measurement": "solubility (mole fraction)", "setting": "in ethyl acetate, 313.15 K", "value": 0.0342}, {"measurement": "solubility (mole fraction)", "setting": "in ethyl acetate, 318.15 K", "value": 0.0401}, {"measurement": "solubility (mole fraction)", "setting": "in ethyl acetate, 323.15 K", "value": 0.0474}, {"measurement": "solubility (mole fraction)", "setting": "in isobutanol, 278.15 K", "value": 0.00181}, {"measurement": "solubility (mole fraction)", "setting": "in isobutanol, 283.15 K", "value": 0.00222}, {"measurement": "solubility (mole fraction)", "setting": "in isobutanol, 288.15 K", "value": 0.00279}, {"measurement": "solubility (mole fraction)", "setting": "in isobutanol, 293.15 K", "value": 0.00355}, {"measurement": "solubility (mole fraction)", "setting": "in isobutanol, 298.15 K", "value": 0.00433}, {"measurement": "solubility (mole fraction)", "setting": "in isobutanol, 303.15 K", "value": 0.00538}, {"measurement": "solubility (mole fraction)", "setting": "in isobutanol, 308.15 K", "value": 0.00654}, {"measurement": "solubility (mole fraction)", "setting": "in isobutanol, 313.15 K", "value": 0.00791}, {"measurement": "solubility (mole fraction)", "setting": "in isobutanol, 318.15 K", "value": 0.00953}, {"measurement": "solubility (mole fraction)", "setting": "in isobutanol, 323.15 K", "value": 0.0114}, {"measurement": "solubility (mole fraction)", "setting": "in isopropanol, 278.15 K", "value": 0.00382}, {"measurement": "solubility (mole fraction)", "setting": "in isopropanol, 283.15 K", "value": 0.0045}, {"measurement": "solubility (mole fraction)", "setting": "in isopropanol, 288.15 K", "value": 0.00532}, {"measurement": "solubility (mole fraction)", "setting": "in isopropanol, 293.15 K", "value": 0.00632}, {"measurement": "solubility (mole fraction)", "setting": "in isopropanol, 298.15 K", "value": 0.00752}, {"measurement": "solubility (mole fraction)", "setting": "in isopropanol, 303.15 K", "value": 0.00895}, {"measurement": "solubility (mole fraction)", "setting": "in isopropanol, 308.15 K", "value": 0.0106}, {"measurement": "solubility (mole fraction)", "setting": "in isopropanol, 313.15 K", "value": 0.0126}, {"measurement": "solubility (mole fraction)", "setting": "in isopropanol, 318.15 K", "value": 0.015}, {"measurement": "solubility (mole fraction)", "setting": "in isopropanol, 323.15 K", "value": 0.0181}, {"measurement": "solubility (mole fraction)", "setting": "in methanol, 278.15 K", "value": 0.00542}, {"measurement": "solubility (mole fraction)", "setting": "in methanol, 283.15 K", "value": 0.00665}, {"measurement": "solubility (mole fraction)", "setting": "in methanol, 288.15 K", "value": 0.00806}, {"measurement": "solubility (mole fraction)", "setting": "in methanol, 293.15 K", "value": 0.00969}, {"measurement": "solubility (mole fraction)", "setting": "in methanol, 298.15 K", "value": 0.0115}, {"measurement": "solubility (mole fraction)", "setting": "in methanol, 303.15 K", "value": 0.0135}, {"measurement": "solubility (mole fraction)", "setting": "in methanol, 308.15 K", "value": 0.0157}, {"measurement": "solubility (mole fraction)", "setting": "in methanol, 313.15 K", "value": 0.0185}, {"measurement": "solubility (mole fraction)", "setting": "in methanol, 318.15 K", "value": 0.0217}, {"measurement": "solubility (mole fraction)", "setting": "in methanol, 323.15 K", "value": 0.0257}, {"measurement": "solubility (mole fraction)", "setting": "in n-propanol, 278.15 K", "value": 0.00311}, {"measurement": "solubility (mole fraction)", "setting": "in n-propanol, 283.15 K", "value": 0.00369}, {"measurement": "solubility (mole fraction)", "setting": "in n-propanol, 288.15 K", "value": 0.00439}, {"measurement": "solubility (mole fraction)", "setting": "in n-propanol, 293.15 K", "value": 0.00526}, {"measurement": "solubility (mole fraction)", "setting": "in n-propanol, 298.15 K", "value": 0.00621}, {"measurement": "solubility (mole fraction)", "setting": "in n-propanol, 303.15 K", "value": 0.00756}, {"measurement": "solubility (mole fraction)", "setting": "in n-propanol, 308.15 K", "value": 0.00902}, {"measurement": "solubility (mole fraction)", "setting": "in n-propanol, 313.15 K", "value": 0.0109}, {"measurement": "solubility (mole fraction)", "setting": "in n-propanol, 318.15 K", "value": 0.0129}, {"measurement": "solubility (mole fraction)", "setting": "in n-propanol, 323.15 K", "value": 0.0157}]}]}
